Source: article PMC4585259 (Frontiers in Pharmacology, 2015)
Read-outs that look alike come from different tables or passages of the source.

Target: T1, rNav1.2 sodium channels (Rattus norvegicus, UniProt P04775)
T1 construct: host or cells: HEK-293
Assay: QPatch automated patch clamp, inhibition of sodium currents evoked by 5 Hz trains at three extracellular pH values
Format: cell-based
Settings: for class of pH-dependence pattern (cluster analysis): Ward's method on 18 variables of affinity, reversibility, onset; for τoffset / τonset: concentration (lidocaine 300 μM, memantine 30 μM)
Method: HEK-293 cells stably expressing rNav1.2 sodium channels were obtained from NeuroSearch (Ballerup, Denmark). The cells were grown in Dulbecco's modified Eagle medium supplemented with 10% FBS. Prior to use, the cells were trypsinized and subsequently kept in suspension in the QPatch cell storage facility in CHO-S- SFM-II medium.
Composition of the extracellular solution was: (in mM): 140 NaCl, 3 KCl, 1 CaCl2 1 MgCl2, 0.1 CdCl2, 20 TEA-Cl, 5 HEPES, adjusted to pH 7.3, Osmolality: 320 mOsm. […] Drugs were synthesized in Gedeon Richter Plc. […] The full list of drugs, with their three-letter codes, concentration, as well as their main therapeutic indication and main mechanism of action are shown in Table 1. […] The choice of concentrations used in this study may seem unusually high.
Data were sampled at a frequency of 25 kHz and filtered at 5 kHz. Junction potential was calculated to be −11 mV and was corrected for. […] Cells having membrane resistance < 500 MOhm, series resistance > 9 MOhm, or capacitance > 22 pF were excluded from analysis. The experimental protocol was also identical to the one used in our previous study: sodium channels were activated by 5 Hz trains of 5 depolarizations (−90 to −10 mV) repeated in every 20 s. In this study, however, the same control–drug-application–washout sequence was repeated four times: at neutral, acidic, alkalic, and again neutral pH. The peak amplitudes of sodium currents throughout the whole experiment are shown plotted against time in Figure 1 and Supplementary Figure 1.
Initial analysis, including subtraction of leak and capacitive artifacts, as well as peak detection were done in the QPatch software. […] All experiments were normalized to the amplitude of the current evoked by the first depolarization of the last train under control conditions. […] For all four drug applications in an experiment, apparent affinity, onset and offset time constants as well as reversibility values were calculated. […] (This method is equivalent to applying the Lineweaver-Burk plot method using a single concentration.) Reversibility values were calculated from control (c), inhibited (i), and wash-out (w) amplitudes as follows: Reversibility = (w-i)/(c-i). Reversibility values should not be regarded as experimental platform-independent properties of compounds. […] However, reversibility values are a valuable source of information regarding physicochemical differences between individual drugs, or between effects of the same drug under different extracellular pH conditions. Onset and offset time constants were determined by single exponential fitting to individual experiments. For neutral pH numerical data were given as the average of the data from the first and the last drug applications. Thin black lines on Figure 1 and Supplemental Figure 1 show the average of five fitted exponentials, (not the exponential fitted to the averaged normalized amplitudes). The numerical values of apparent affinity, onset and offset time constants and reversibility are shown in Table 2, and their relative position is illustrated in Figure 2. Affinity and time constant values were logarithmically transformed for statistics, therefore we show their geometric mean. For recovery data no transformation was done, and we show arithmetic mean values. Significance values were calculated using paired, two-tailed Student's t-test based on five pairs of apparent affinity (log transform), time constant (log transform), or reversibility values obtained from five individual experiments. Because of the large number of comparisons in this study, we accepted p < 0.01 as significant. Cluster analysis was done using Ward's minimum variance method, with Euclidean distance measure. Data were normalized by subtracting the mean (after logarithmic transformation in the case of apparent affinity and time constants), and dividing by the standard deviation.

[1] = pH 6.0, single concentration (lidocaine 300 μM, memantine 30 μM), geometric mean of 5, read-out: apparent affinity
[2] = pH 7.3, single concentration (lidocaine 300 μM, memantine 30 μM), geometric mean of 5, read-out: apparent affinity
[3] = pH 8.6, single concentration (lidocaine 300 μM, memantine 30 μM), geometric mean of 5, read-out: apparent affinity

T1 sequence (P04775 whole entry): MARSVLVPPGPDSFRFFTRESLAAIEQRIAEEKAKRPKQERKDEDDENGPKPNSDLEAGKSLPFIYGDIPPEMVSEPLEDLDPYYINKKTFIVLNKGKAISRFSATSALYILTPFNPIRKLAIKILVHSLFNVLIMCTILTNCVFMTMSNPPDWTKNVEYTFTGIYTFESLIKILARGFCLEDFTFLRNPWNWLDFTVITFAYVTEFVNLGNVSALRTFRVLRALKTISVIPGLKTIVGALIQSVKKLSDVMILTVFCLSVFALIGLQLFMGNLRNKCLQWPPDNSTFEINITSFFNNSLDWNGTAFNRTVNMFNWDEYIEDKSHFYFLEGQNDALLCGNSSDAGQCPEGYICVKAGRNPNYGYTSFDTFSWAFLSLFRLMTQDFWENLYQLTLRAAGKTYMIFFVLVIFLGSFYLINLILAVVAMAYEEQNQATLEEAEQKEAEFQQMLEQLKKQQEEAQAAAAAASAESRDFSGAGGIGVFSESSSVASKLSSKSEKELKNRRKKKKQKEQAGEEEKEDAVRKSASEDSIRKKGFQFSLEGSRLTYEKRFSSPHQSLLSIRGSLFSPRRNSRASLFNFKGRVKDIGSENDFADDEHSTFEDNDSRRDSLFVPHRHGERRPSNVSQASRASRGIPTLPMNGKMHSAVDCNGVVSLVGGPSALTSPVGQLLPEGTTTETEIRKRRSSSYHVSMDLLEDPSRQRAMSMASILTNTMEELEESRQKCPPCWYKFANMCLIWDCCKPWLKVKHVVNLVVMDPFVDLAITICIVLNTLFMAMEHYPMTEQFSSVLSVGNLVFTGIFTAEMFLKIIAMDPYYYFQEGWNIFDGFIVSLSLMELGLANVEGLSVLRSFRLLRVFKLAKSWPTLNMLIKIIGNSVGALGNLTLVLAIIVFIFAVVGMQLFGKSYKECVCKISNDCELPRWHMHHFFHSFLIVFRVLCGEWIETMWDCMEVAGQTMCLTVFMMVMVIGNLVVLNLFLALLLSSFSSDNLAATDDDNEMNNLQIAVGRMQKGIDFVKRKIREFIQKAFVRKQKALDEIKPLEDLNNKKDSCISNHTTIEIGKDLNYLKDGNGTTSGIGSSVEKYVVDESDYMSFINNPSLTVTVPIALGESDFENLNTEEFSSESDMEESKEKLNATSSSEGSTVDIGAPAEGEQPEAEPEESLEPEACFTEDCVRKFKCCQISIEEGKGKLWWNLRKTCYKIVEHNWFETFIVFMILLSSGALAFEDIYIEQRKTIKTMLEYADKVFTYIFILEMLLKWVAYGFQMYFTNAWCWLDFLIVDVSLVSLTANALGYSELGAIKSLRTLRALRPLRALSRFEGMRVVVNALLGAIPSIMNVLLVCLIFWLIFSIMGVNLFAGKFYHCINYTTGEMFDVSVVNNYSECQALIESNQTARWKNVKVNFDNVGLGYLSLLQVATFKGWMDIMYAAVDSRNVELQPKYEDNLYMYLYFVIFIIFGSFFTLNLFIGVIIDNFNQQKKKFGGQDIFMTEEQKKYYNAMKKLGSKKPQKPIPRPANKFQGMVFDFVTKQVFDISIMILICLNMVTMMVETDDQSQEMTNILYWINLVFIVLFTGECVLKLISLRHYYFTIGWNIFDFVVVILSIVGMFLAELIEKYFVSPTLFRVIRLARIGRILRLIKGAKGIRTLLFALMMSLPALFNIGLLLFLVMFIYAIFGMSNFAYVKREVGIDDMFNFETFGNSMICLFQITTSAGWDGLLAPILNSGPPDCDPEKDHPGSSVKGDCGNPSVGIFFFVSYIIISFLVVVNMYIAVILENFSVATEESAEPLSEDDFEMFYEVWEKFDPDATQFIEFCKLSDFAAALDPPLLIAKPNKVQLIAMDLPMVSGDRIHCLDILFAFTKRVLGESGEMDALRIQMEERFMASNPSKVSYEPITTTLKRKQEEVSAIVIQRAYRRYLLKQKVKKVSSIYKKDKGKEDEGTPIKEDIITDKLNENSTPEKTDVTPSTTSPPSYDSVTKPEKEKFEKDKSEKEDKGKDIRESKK

Kd [1] [µM]	Kd [2] [µM]	Kd [3] [µM]	SMILES	class of pH-dependence pattern (cluster analysis)	τoffset (pH 6.0) [s]	τonset (pH 6.0) [s]	τoffset (pH 7.3) [s]	τonset (pH 7.3) [s]	τoffset (pH 8.6) [s]	τonset (pH 8.6) [s]	Reversibility (pH=6.0, cc 30 mM)	Reversibility (pH=7.3, cc 30 mM)	Reversibility (pH=8.6, cc 30 mM)	Ratio Reversibility (pH 6.0/7.3, cc 100 mM)	Ratio Tau Offset (pH 6.0/7.3, cc 100 mM)	Ratio Tau Onset (pH 6.0/7.3, cc 100 mM)	log Ratio App Aff (pH 6.0/7.3, cc 100 mM)	Ratio Reversibility (pH 6.0/8.6, cc 100 mM)	Ratio Tau Offset (pH 6.0/8.6, cc 100 mM)	Ratio Tau Onset (pH 6.0/8.6, cc 100 mM)	further results
545	581	543	NC(=O)N1c2ccccc2C=Cc2ccccc21 [carbamazepine]	Class A	12.30	4.00	10.01	5.00	8.25	5.00	–	–	–	–	–	–	–	–	–	–	Ratio Reversibility (pH 6.0/7.3, cc 300 mM): 0.728; Ratio Tau Offset (pH 6.0/7.3, cc 300 mM): 1.229; Ratio Tau Onset (pH 6.0/7.3, cc 300 mM): 0.800; log Ratio App Aff (pH 6.0/7.3, cc 300 mM): -0.028; Ratio Reversibility (pH 6.0/8.6, cc 300 mM): 0.955; Ratio Tau Offset (pH 6.0/8.6, cc 300 mM): 1.490; Ratio Tau Onset (pH 6.0/8.6, cc 300 mM): 0.800; log Ratio App Aff (pH 6.0/8.6, cc 300 mM): 0.00109; Ratio Reversibility (pH 7.3/8.6, cc 300 mM): 1.312; Ratio Tau Offset (pH 7.3/8.6, cc 300 mM): 1.212; Ratio Tau Onset (pH 7.3/8.6, cc 300 mM): 1.000; log Ratio App Aff (pH 7.3/8.6, cc 300 mM): 0.029; Reversibility (pH=6.0, cc 300 mM): 0.67; Kd (pH=6.0, cc 300 mM, read-out: Apparent Affinity): 545 µM; Reversibility (pH=7.3, cc 300 mM): 0.92; Kd (pH=7.3, cc 300 mM, read-out: Apparent Affinity): 581 µM; Reversibility (pH=8.6, cc 300 mM): 0.70; Kd (pH=8.6, cc 300 mM, read-out: Apparent Affinity): 543 µM
–	–	–	Nc1nc2ccc(OC(F)(F)F)cc2s1 [riluzole]	Class G	23.60	9.20	21.40	9.60	23.40	10.40	0.45	0.73	0.45	–	–	–	–	–	–	–	–
317	141	37.7	CN1CCN2c3ncccc3Cc3ccccc3C2C1 (centres unmarked) [mirtazapine]	Class D	14.40	12.20	13.00	8.80	15.00	10.40	–	–	–	0.272	1.108	1.386	0.353	0.495	0.960	1.173	log Ratio App Aff (pH 6.0/8.6, cc 100 mM): 0.925; Ratio Reversibility (pH 7.3/8.6, cc 100 mM): 1.821; Ratio Tau Offset (pH 7.3/8.6, cc 100 mM): 0.867; Ratio Tau Onset (pH 7.3/8.6, cc 100 mM): 0.846; log Ratio App Aff (pH 7.3/8.6, cc 100 mM): 0.572; effect of acidic pH on recovery (pH = 6.0 vs 7.3, in words): decreased recovery; Reversibility (pH=6.0, cc 100 mM): 0.26; Kd (pH=6.0, cc 100 mM, read-out: Apparent Affinity): 317 µM; Reversibility (pH=7.3, cc 100 mM): 0.95; Kd (pH=7.3, cc 100 mM, read-out: Apparent Affinity): 141 µM; Reversibility (pH=8.6, cc 100 mM): 0.52; Kd (pH=8.6, cc 100 mM, read-out: Apparent Affinity): 37.7 µM
–	–	–	CNCCC(Oc1ccccc1OC)c1ccccc1 (centres unmarked) [nisoxetine]	Class F	19.60	13.20	30.82	23.99	20.70	10.60	–	–	–	1.076	0.636	0.550	0.419	1.973	0.947	1.245	Kd (Apparent Affinity, pH=6.0, cc 100 mM): 210 µM; Kd (Apparent Affinity, pH=7.3, cc 100 mM): 80.1 µM; Kd (Apparent Affinity, pH=8.6, cc 100 mM): 28.6 µM; Kd (apparent affinity, pH 6.0, single concentration (lidocaine 300 μM, memantine 30 μM), geometric mean of 5): 210 µM; Kd (apparent affinity, pH 7.3, single concentration (lidocaine 300 μM, memantine 30 μM), geometric mean of 5): 80.1 µM; Kd (apparent affinity, pH 8.6, single concentration (lidocaine 300 μM, memantine 30 μM), geometric mean of 5): 28.6 µM; log Ratio App Aff (pH 6.0/8.6, cc 100 mM): 0.867; Ratio Reversibility (pH 7.3/8.6, cc 100 mM): 1.833; Ratio Tau Offset (pH 7.3/8.6, cc 100 mM): 1.489; Ratio Tau Onset (pH 7.3/8.6, cc 100 mM): 2.263; log Ratio App Aff (pH 7.3/8.6, cc 100 mM): 0.448; Reversibility (pH=6.0, cc 100 mM): 0.75; Reversibility (pH=7.3, cc 100 mM): 0.69; Reversibility (pH=8.6, cc 100 mM): 0.38

SMILES	Kd [1] [µM]	Kd [2] [µM]	Kd [3] [µM]	class of pH-dependence pattern (cluster analysis)	τoffset (pH 6.0) [s]	τonset (pH 6.0) [s]	τoffset (pH 7.3) [s]	τonset (pH 7.3) [s]	τoffset (pH 8.6) [s]	τonset (pH 8.6) [s]	Reversibility (pH=6.0, cc 30 mM)	Reversibility (pH=7.3, cc 30 mM)	Reversibility (pH=8.6, cc 30 mM)	Ratio Reversibility (pH 6.0/7.3, cc 100 mM)	Ratio Tau Offset (pH 6.0/7.3, cc 100 mM)	Ratio Tau Onset (pH 6.0/7.3, cc 100 mM)	log Ratio App Aff (pH 6.0/7.3, cc 100 mM)	Ratio Reversibility (pH 6.0/8.6, cc 100 mM)	Ratio Tau Offset (pH 6.0/8.6, cc 100 mM)	Ratio Tau Onset (pH 6.0/8.6, cc 100 mM)	further results
CN(C)CCCN1c2ccccc2Sc2ccc(Cl)cc21 [chlorpromazine]	37.5	31.4	17.2	Class G	23.60	19.40	28.40	22.20	33.00	29.40	0.53	0.28	0.37	–	–	–	–	–	–	–	alkalization-induced recovery (neutral-to-alkalic solution exchange, in words): prominent alkalization-induced recovery; reversibility at all three pH values (pH 6.0, 7.3 and 8.6): below 0.6; Ratio Reversibility (pH 6.0/7.3, cc 30 mM): 1.906; Ratio Tau Offset (pH 6.0/7.3, cc 30 mM): 0.831; Ratio Tau Onset (pH 6.0/7.3, cc 30 mM): 0.874; log Ratio App Aff (pH 6.0/7.3, cc 30 mM): 0.077; Ratio Reversibility (pH 6.0/8.6, cc 30 mM): 1.432; Ratio Tau Offset (pH 6.0/8.6, cc 30 mM): 0.715; Ratio Tau Onset (pH 6.0/8.6, cc 30 mM): 0.660; log Ratio App Aff (pH 6.0/8.6, cc 30 mM): 0.339; Ratio Reversibility (pH 7.3/8.6, cc 30 mM): 0.751; Ratio Tau Offset (pH 7.3/8.6, cc 30 mM): 0.861; Ratio Tau Onset (pH 7.3/8.6, cc 30 mM): 0.755; log Ratio App Aff (pH 7.3/8.6, cc 30 mM): 0.261; Kd (pH=6.0, cc 30 mM, read-out: Apparent Affinity): 37.5 µM; Kd (pH=7.3, cc 30 mM, read-out: Apparent Affinity): 31.4 µM; Kd (pH=8.6, cc 30 mM, read-out: Apparent Affinity): 17.2 µM
